According to US20250129430A1, “HIGH ATP-AFFINITY PROTEIN AS THERAPEUTIC TARGET FOR INTRACTABLE CANCER MOLECULAR SUBTYPES AND INHIBITOR THEREOF” (VeraVerse Co., Ltd., priority 2021, published 2025):

Tests used:
Type in all cases: cell-based, human
SNU484 = test: Cell viability drug screen, 12-point dose-response AUC; conditions: SNU484 cells (SEM subtype); 72 hours
Procedure, shortened: (§1)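 AUC comes from 12-point half-log dose–response curves, normalized to DMSO-treated cells and integrated trapezoidally, repeats averaged. Luminescent viability read after 72 h compound exposure at 37 °C; cells plated 5×10^3 per well 24 h before dosing.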

SNU638 = test: as above; conditions: SNU638 cells; 72 hours
Procedure, shortened: as §1

SNU668 = test: as above; conditions: SNU668 cells (SEM subtype); 72 hours
Procedure, shortened: as §1

NCC24 = test: as above; conditions: NCC24 cells; 72 hours
Procedure, shortened: as §1

MKN45 = test: as above; conditions: MKN45 cells (non-SEM subtype); 72 hours
Procedure, shortened: (§2)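 Dose-response AUC reflects 72 h drug exposure of gastric cancer cells in a 12-point, half-log format, with viability read by luminescence and normalized to DMSO (0.5%).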

SNU620 = test: as above; conditions: SNU620 cells; 72 hours
Procedure, shortened: as §1

AGS = test: as above; conditions: AGS cells (non-SEM subtype); 72 hours
Procedure, shortened: as §2

KATO3 = test: as above; conditions: KATO3 cells; 72 hours
Procedure, shortened: as §1

SNU1967 = test: as above; conditions: SNU1967 cells; 72 hours
Procedure, shortened: as §1

NCC19 = test: as above; conditions: NCC19 cells; 72 hours
Procedure, shortened: as §1

SNU1 = test: as above; conditions: SNU1 cells; 72 hours
Procedure, shortened: as §1

NCI_N87 = test: as above; conditions: NCI_N87 cells; 72 hours
Procedure, shortened: as §1

SK4 = test: as above; conditions: SK4 cells (SEM subtype); 72 hours
Procedure, shortened: as §1

OCUM1 = test: as above; conditions: OCUM1 cells; 72 hours
Procedure, shortened: as §1

MKN74 = test: as above; conditions: MKN74 cells; 72 hours
Procedure, shortened: as §2

MKN28 = test: as above; conditions: MKN28 cells; 72 hours
Procedure, shortened: as §1

SNU601 = test: as above; conditions: SNU601 cells; 72 hours
Procedure, shortened: as §1

YCC3 = test: as above; conditions: YCC3 cells; 72 hours
Procedure, shortened: as §1

YCC11 = test: as above; conditions: YCC11 cells (SEM subtype); 72 hours
Procedure, shortened: as §1

SNU1750 = test: as above; conditions: SNU1750 cells (SEM subtype); 72 hours
Procedure, shortened: as §1

NCC59 = test: as above; conditions: NCC59 cells; 72 hours
Procedure, shortened: as §1

MKN1 = test: as above; conditions: MKN1 cells; 72 hours
Procedure, shortened: as §1

Hs746T = test: as above; conditions: Hs746T cells (SEM subtype); 72 hours
Procedure, shortened: as §1

SNU16 = test: as above; conditions: SNU16 cells; 72 hours
Procedure, shortened: as §1

NCC20 = test: as above; conditions: NCC20 cells; 72 hours
Procedure, shortened: as §1

SNU216 = test: as above; conditions: SNU216 cells (non-SEM subtype); 72 hours
Procedure, shortened: as §2

SNU719 = test: as above; conditions: SNU719 cells; 72 hours
Procedure, shortened: as §2

YCC2 = test: as above; conditions: YCC2 cells; 72 hours
Procedure, shortened: as §1

[1] = test system: non-SEM-type gastric cancer cell line; test: Cell viability drug screen, AUC summary over non-SEM-type lines; conditions: in the non-SEM-type gastric cancer cell line
FU97 = test: Cell viability drug screen, 12-point dose-response AUC; set-up: Average Area Under the Viability Curve (AUC), AUC norm value: scale not given here; conditions: FU97 cells; 72 hours
Procedure, shortened: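 Trapezoidal AUC of a 12-point, DMSO-normalized dose-response curve. Luminescent viability was measured after 72 h of exposure at 37° C to half-log serial dilutions (0.5% DMSO control), dosed 24 h after plating FU97 cells at 5×10^3 per well.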

| Compound | Average Area Under the Viability Curve (AUC), AUC norm value (SNU484) | Average Area Under the Viability Curve (AUC), AUC norm value (SNU638) | Average Area Under the Viability Curve (AUC), AUC norm value (SNU668) | Average Area Under the Viability Curve (AUC), AUC norm value (NCC24) | Average Area Under the Viability Curve (AUC), AUC norm value (MKN45) | Average Area Under the Viability Curve (AUC), AUC norm value (SNU620) | Average Area Under the Viability Curve (AUC), AUC norm value (AGS) | Average Area Under the Viability Curve (AUC), AUC norm value (KATO3) | Average Area Under the Viability Curve (AUC), AUC norm value (SNU1967) | Average Area Under the Viability Curve (AUC), AUC norm value (NCC19) | Average Area Under the Viability Curve (AUC), AUC norm value (SNU1) | Average Area Under the Viability Curve (AUC), AUC norm value (NCI_N87) | Average Area Under the Viability Curve (AUC), AUC norm value (SK4) | Average Area Under the Viability Curve (AUC), AUC norm value (OCUM1) | Average Area Under the Viability Curve (AUC), AUC norm value (MKN74) | Average Area Under the Viability Curve (AUC), AUC norm value (MKN28) | Average Area Under the Viability Curve (AUC), AUC norm value (SNU601) | Average Area Under the Viability Curve (AUC), AUC norm value (YCC3) | Average Area Under the Viability Curve (AUC), AUC norm value (YCC11) | Average Area Under the Viability Curve (AUC), AUC norm value (SNU1750) | other results |
| --- | --- | --- | --- | --- | --- | --- | --- | --- | --- | --- | --- | --- | --- | --- | --- | --- | --- | --- | --- | --- | --- |
| CCC[C@H](NC(=O)/C(C#N)=C/c1cccc(Br)n1)c1ccccc1 [WP1130] | −0.8971 | −0.3485 | 0.1607 | 0.3475 | 1.024 | 1.336 | −0.6997 | 1.454 | −0.7195 | 1.376 | 1.527 | 2.159 | −0.08364 | −0.652 | −0.1908 | −0.04006 | 3.24 | 0.8784 | −0.2144 | −0.8602 | Average Area Under the Viability Curve (AUC), AUC norm value (NCC59): 0.7588; Average Area Under the Viability Curve (AUC), AUC norm value (MKN1): −0.4264; Average Area Under the Viability Curve (AUC), AUC norm value (Hs746T): −0.3738; Average Area Under the Viability Curve (AUC), AUC norm value (SNU16): 0; Average Area Under the Viability Curve (AUC), AUC norm value (NCC20): −0.8247; Average Area Under the Viability Curve (AUC), AUC norm value (SNU216): 0.1101; Average Area Under the Viability Curve (AUC), AUC norm value (SNU719): 1.245; Average Area Under the Viability Curve (AUC), AUC norm value (YCC2): 0.94; AUC value [1]: high; Average Area Under the Viability Curve (AUC), AUC norm value (FU97): −0.7929 |
| CCCCCCCCCCCCCCCC[N+](C)(C)CCN(Cc1ccc(OC)cc1)c1ncccn1 [Thonzonium Bromide] | −0.9082 | −0.4973 | 0.3151 | −0.2465 | 0.1213 | −0.2404 | −0.4105 | −0.127 | 0.01501 | 0.2995 | 1.478 | 0.415 | −1.033 | 0.2209 | −0.9967 | 0.07021 | 2.228 | 0.6163 | −0.8304 | 0.06729 | Average Area Under the Viability Curve (AUC), AUC norm value (NCC59): 0.6096; Average Area Under the Viability Curve (AUC), AUC norm value (MKN1): −0.2414; Average Area Under the Viability Curve (AUC), AUC norm value (Hs746T): 0; Average Area Under the Viability Curve (AUC), AUC norm value (SNU16): −0.9128; Average Area Under the Viability Curve (AUC), AUC norm value (NCC20): −0.6042; Average Area Under the Viability Curve (AUC), AUC norm value (SNU216): 0.2737; Average Area Under the Viability Curve (AUC), AUC norm value (SNU719): 1.9; Average Area Under the Viability Curve (AUC), AUC norm value (YCC2): −0.4255; AUC value [1]: high; Average Area Under the Viability Curve (AUC), AUC norm value (FU97): −0.03008 |
